This is an account of results in patent US10214512B2, “Factor XIA inhibitors” (MERCK SHARP & DOHME CORP., priority 2015, dated 2019).

Test [1] deals with purified human Factor XIa (Homo sapiens (Human), UniProt P03951). Kind of test: Factor XIa Assay. To be noted: purified human Factor XIa 40 pM; substrate Z-Gly-Pro-Arg-AFC 100 μM; 50 mM HEPES pH 7.4; read-out: Human FXIa Ki. The test is classed as biochemical. A digest of the protocol:
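Purified human FXIa at 40 pM final with fluorogenic Z-Gly-Pro-Arg-AFC at 100 μM, in 50 mM HEPES pH 7.4, 150 mM NaCl, 5 mM CaCl2, 0.1% PEG 8000, at rt or 37° C. Initial velocities measured after enzyme–inhibitor equilibration; Ki derived from Vo/Vi versus [I] assuming competitive inhibition.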

Test [2] concerns the target purified Human plasma Kallikrein (Homo sapiens (Human), UniProt P03952). Nature of the test: Kallikrein Assay. It counts as biochemical. Conditions: purified Human plasma Kallikrein 0.5 nM; substrate Acetyl-K-P-R-AFC; 50 mM HEPES pH 7.4; Ki from IC50 by Cheng Prusoff. The essentials: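 Purified human plasma kallikrein (0.5 nM) with fluorogenic Ac-K-P-R-AFC ([…]) in 50 mM HEPES pH 7.4, 150 mM NaCl, 5 mM CaCl2, 0.1% PEG 8000, at rt or 37 °C. Substrate hydrolysis rate read with and without inhibitor; IC50 from four-parameter logistic fit, converted to Ki by Cheng–Prusoff.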

purified human Factor XIa, sequence (P03951 388-625): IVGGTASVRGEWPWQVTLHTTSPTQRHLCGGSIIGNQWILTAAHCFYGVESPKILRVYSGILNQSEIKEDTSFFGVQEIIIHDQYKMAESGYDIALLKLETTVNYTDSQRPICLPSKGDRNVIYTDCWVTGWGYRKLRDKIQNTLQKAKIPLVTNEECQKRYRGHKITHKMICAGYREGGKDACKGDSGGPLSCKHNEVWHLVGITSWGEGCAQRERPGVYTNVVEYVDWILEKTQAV
purified human Factor XIa, sequence (P03951 19-387 partner): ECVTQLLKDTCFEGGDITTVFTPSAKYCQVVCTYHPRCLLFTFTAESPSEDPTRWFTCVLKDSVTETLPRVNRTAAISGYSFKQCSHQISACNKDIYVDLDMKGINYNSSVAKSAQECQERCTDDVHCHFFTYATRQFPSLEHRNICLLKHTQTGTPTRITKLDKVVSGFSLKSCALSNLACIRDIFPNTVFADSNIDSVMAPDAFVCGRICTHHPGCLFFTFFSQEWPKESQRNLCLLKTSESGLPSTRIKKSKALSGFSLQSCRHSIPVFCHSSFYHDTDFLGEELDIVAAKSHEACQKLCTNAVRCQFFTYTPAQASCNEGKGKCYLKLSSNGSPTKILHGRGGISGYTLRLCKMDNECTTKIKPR
purified Human plasma Kallikrein, sequence (P03952 391-638): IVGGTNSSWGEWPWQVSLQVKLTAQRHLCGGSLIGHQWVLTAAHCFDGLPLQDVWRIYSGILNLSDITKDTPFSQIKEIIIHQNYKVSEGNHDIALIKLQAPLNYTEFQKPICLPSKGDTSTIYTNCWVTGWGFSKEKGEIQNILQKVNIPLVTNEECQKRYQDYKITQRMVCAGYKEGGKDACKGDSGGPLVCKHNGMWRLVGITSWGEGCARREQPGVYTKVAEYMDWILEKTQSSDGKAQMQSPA
purified Human plasma Kallikrein, sequence (P03952 20-390 partner): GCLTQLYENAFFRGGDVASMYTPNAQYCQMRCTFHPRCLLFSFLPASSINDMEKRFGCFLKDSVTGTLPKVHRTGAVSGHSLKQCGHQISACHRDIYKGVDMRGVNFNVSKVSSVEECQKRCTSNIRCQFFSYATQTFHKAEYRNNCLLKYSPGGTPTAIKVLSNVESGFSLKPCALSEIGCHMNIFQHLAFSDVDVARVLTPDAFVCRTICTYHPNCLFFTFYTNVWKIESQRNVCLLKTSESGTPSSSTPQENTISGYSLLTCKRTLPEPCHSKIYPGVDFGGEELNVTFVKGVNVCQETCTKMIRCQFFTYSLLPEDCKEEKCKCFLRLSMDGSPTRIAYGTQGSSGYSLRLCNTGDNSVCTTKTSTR

What is called Ki is the dissociation constant of the complex between target and ligand, obtained from inhibition or displacement. With `COC(=O)Nc1ccc2c(c1)NC(=O)CCCCC(c1ccc(-c3c(F)cc(I)c(Cl)c3F)c[n+]1[O-])c1nc-2c[nH]1` (single isomer, unassigned) [Example 103-a, (Z)-5-(3-Chloro-2,6-difluoro-4-iodophenyl)-2-(2^4-((methoxycarbonyl)amino)-4-oxo-1^1H-3-aza-1(4,2)-imidazola-2(1,2) -benzenacyclononaphane-9-yl)pyridine 1-oxide], the results for the Ki in test [1] and in test [2] were 1.7 nM and 137 nM, respectively.
`COC(=O)Nc1ccc2c(c1)NC(=O)C(C)CCCC(c1ccc(-c3c(F)ccc(Cl)c3F)c[n+]1[O-])c1ccc(F)c-2c1` (single isomer, unassigned) [Example 86-a, 5-(3-Chloro-2,6-difluorophenyl)-2-(1^6-fluoro-2^4-((methoxycarbonyl)amino)-5-methyl-4-oxo-3-aza-1(1,3),2(1,2) -dibenzenacyclononaphane-9-yl)pyridine 1-oxide]: the Ki is 6.34 nM in test [1] and 1.29 nM in test [2].
In the case of `COC(=O)Nc1ccc2c(c1)NC(=O)CC1CC1CC(c1ccc(-c3c(F)cccc3C(F)F)c[n+]1[O-])c1nc-2c(C)[nH]1` (racemic) [Example 156], the results for the Ki in test [1] and in test [2] were 1.55 nM and 13.6 nM, respectively.
The matching figures for `COC(=O)Nc1ccc2c(c1)NC(=O)CCCCC(c1ccc(-c3c(F)cccc3OC(F)F)c[n+]1[O-])c1nc-2c[nH]1` (single isomer, unassigned) [Example 101-a, (Z)-5-(2-(Difluoromethoxy)-6-fluorophenyl)-2-(2^4-((methoxycarbonyl)amino)-4-oxo-1^1H-3-aza-1(4,2)-imidazola-2(1,2) -benzenacyclononaphane-9-yl)pyridine 1-oxide]: 0.34 nM and 3.9 nM.
With `COC(=O)Nc1ccc2c(c1)NC(=O)CCCC[C@H](c1ccc(-c3cc(Cl)ccc3-n3cc(C)cn3)c[n+]1[O-])c1nc-2c(C)[nH]1` (single isomer, unassigned) [Example 141], the Ki in test [1] amounted to 0.49 nM; in test [2], 82.8 nM.
The matching figures for `COC(=O)Nc1ccc2c(c1)NC(=O)CCCC[C@H](c1ccc(-c3c(C(F)(F)F)ccc(Cl)c3F)c[n+]1[O-])c1nc-2c(C)[nH]1` (single isomer, unassigned) [Example 123]: 0.42 nM and 1.41 nM.
As for `CCc1[nH]c2nc1-c1ccc(NC(=O)OC)cc1NC(=O)C(C)CCC[C@@H]2c1ccc(-c2c(F)cccc2F)c[n+]1[O-]` (single isomer, unassigned) [Example 144], the Ki in test [1] was found to be 0.46 nM; in test [2], 1.35 nM.
For the compound `O=C1CCCCC(c2ccc(-c3cc(Cl)ccc3-n3cnnn3)c[n+]2[O-])c2nc(c[nH]2)-c2cc(F)ccc2N1` (single isomer, unassigned) [Example 11-a, (Z)-5-(5-Chloro-2-(1H-tetrazol-1-yl)phenyl)-2-(2^5-fluoro-4-oxo-1^1h-3-aza-1(4,2)-imidazola-2(1,2)-benzenacyclononaphane-9-yl)pyridine 1-oxide], the Ki came out at 0.22 nM in test [1] and 2.12 nM in test [2].
The matching figures for `COC(=O)Nc1cc(F)c2c(c1)NC(=O)C(C)CCCC(c1ccc(-c3c(F)ccc(Cl)c3F)c[n+]1[O-])c1cccc-2c1` (single isomer, unassigned) [Example 85-b, 5-(3-Chloro-2,6-difluorophenyl)-2-(2^6-fluoro-2^4-((methoxycarbonyl)amino)-5-methyl-4-oxo-3-aza-1(1,3),2(1,2)-dibenzenacyclononaphane-9-yl)pyridine 1-oxide]: 6 nM and 15.2 nM.
As for `COC(=O)Nc1ccc2c(c1)NC(=O)CCCCC(c1ccc(-c3cc(Cl)ccc3-n3cnnn3)cn1)c1cc(F)cc-2c1` (centres unmarked) [Example 51, Methyl (9-(5-(5-chloro-2-(1H-tetrazol-1-yl)phenyl)pyridin-2-yl)-1^5-fluoro-4-oxo-3-aza-1(1,3),2(1,2)-dinenzenacyclononaphane-2^4-yl)carbamate], the results for the Ki in test [1] and in test [2] were 2.76 nM and 46.6 nM, respectively.
The matching figures for `Nc1ccc2c(c1)NC(=O)CCCCC(c1ccc(-c3c(F)ccc(Cl)c3F)c[n+]1[O-])c1nc-2c[nH]1` (single isomer, unassigned) [Example 108-a]: 0.18 nM and 1.02 nM.
The matching figures for `COC(=O)Nc1ccc2c(c1)NC(=O)CCCCC(c1ccc(-c3cc(Cl)ccc3-n3cnnn3)cn1)c1cc-2c(F)cn1` (centres unmarked) [Example 61, methyl (9-(5-(5-chloro-2-(1h-tetrazol-1-yl)phenyl)pyridin-2-yl)-1^5-fluoro-4-oxo-3-aza-1(4,2)-pyridina-2(1,2)-benzenacyclononaphane-2^4-yl)carbamate]: 1.4 nM and 26 nM.
The matching figures for `COC(=O)Nc1cc(F)c2c(c1)NC(=O)C(C)CCCC(c1ccc(-c3c(F)ccc(Cl)c3F)c[n+]1[O-])c1cccc-2c1` (single isomer, unassigned) [Example 85-c, 5-(3-Chloro-2,6-difluorophenyl)-2-(2^6-fluoro-2^4-((methoxycarbonyl)amino)-5-methyl-4-oxo-3-aza-1(1,3),2(1,2)-dibenzenacyclononaphane-9-yl)pyridine 1-oxide]: 0.97 nM and 2.59 nM.
Consider `O=C1CCCC[C@H](c2ccc(-c3c(F)ccc(Cl)c3F)c[n+]2[O-])c2cccc(c2)-c2ccc(Nc3ncccn3)cc2N1` [Example 48, (S)-5-(3-chloro-2,6-difluorophenyl)-2-(4-oxo-2^4-(pyrimidin-2-YLAMINO)-3-AZA-1 (1,3),2(1,2)-dinenzenacyclononaphane-9-yl)pyridine 1-oxide], for which the results for the Ki in test [1] and in test [2] were 2.1 nM and 1.76 nM, respectively.
The matching figures for `O=C1CCCCC(c2ccc(-c3cc(Cl)ccc3-n3cnnn3)c[n+]2[O-])c2c[nH]c(n2)-c2cc(F)ccc2N1` (racemic) [Example 160, (Z)-5-(5-chloro-2-(1H-tetrazol-1-yl)phenyl)-2-(2^5-fluoro-4-oxo-1^1H-3-aza-1(2,4)-imidazola-2(1,2)-benzenacyclononaphane-9-yl)pyridine 1-oxide]: 0.47 nM and 4 nM.
Take `C[C@@H]1CCC[C@@H](c2ccc(-c3cc(Cl)ccc3-n3cnnn3)c[n+]2[O-])c2cccc(c2)-c2cc(F)ccc2NC1=O` [Example 3-a, 5-(5-chloro-2-(1H-tetrazol-1-yl)phenyl)-2-((5R,9R)-2^5-fluoro-5-methyl-4-oxo-3-aza-1(1,3),2(1,2)-dibenzenacyclononaphane-9-yl)pyridine 1-oxide]: the values for the Ki in test [1] and in test [2] were 27.7 nM and 79.8 nM, respectively.
The matching figures for `COC(=O)Nc1ccc2c(c1)NC(=O)[C@@H](C)CCC[C@H](c1ccc(-c3c(F)cccc3F)c[n+]1[O-])c1nc-2c(C)[nH]1` (single isomer, unassigned) [Example 143-a]: 0.33 nM and 1.61 nM.
The matching figures for `CCc1[nH]c2nc1-c1ccc(NC(=O)OC)cc1NC(=O)CCCC[C@@H]2c1ccc(-c2c(F)cccc2OC(F)F)c[n+]1[O-]` (single isomer, unassigned) [Example 127]: 0.15 nM and 2.44 nM.
Take `COC(=O)Nc1ccc2c(c1)NC(=O)C(C)(C)CCC[C@H](c1ccc(-c3c(F)cccc3OC(F)F)c[n+]1[O-])c1nc-2c(C)[nH]1` (single isomer, unassigned) [Example 147]: the values for the Ki in test [1] and in test [2] were 0.22 nM and 3.08 nM, respectively.
The matching figures for `O=C1CCCC[C@H](c2ccc(-c3cc(Cl)ccc3-c3cnco3)c[n+]2[O-])c2nc(c[nH]2)-c2cc(F)ccc2N1` (single isomer, unassigned) [Example 118]: 5.69 nM and 37.5 nM.
As for `COC(=O)Nc1ccc2c(c1)NC(=O)CCCC[C@H](c1ccc(-c3cc(Cl)ccc3OC(F)(F)F)c[n+]1[O-])c1cccc-2c1` (single isomer, unassigned) [Example 30], the results for the Ki in test [1] and in test [2] were 0.38 nM and 6.77 nM, respectively.
For `COC(=O)Nc1ccc2c(c1)NC(=O)CCCCC(c1ccc(-c3c(F)ccc(Cl)c3F)c[n+]1[O-])c1nc-2c(C)[nH]1` (single isomer, unassigned) [Example 111-a, (Z)-5-(3-chloro-2,6-difluorophenyl)-2-(2^4-((methoxycarbonyl)amino)-1^5-methyl-4-oxo-1^1H-3-aza-1(4,2)-imidazola-2(1,2) -benzenacyclononaphane-9-yl)pyridine 1-oxide], the inhibition constant (Ki) in test [1] came out at 0.19 nM; in test [2], 0.34 nM.
On to `CC1CCCC(c2ccc(-c3c(-n4cnnn4)ccc(Cl)c3F)c[n+]2[O-])c2cccc(c2)-c2cc(F)ccc2NC1=O` (centres unmarked) [Example 8, 5,5-(3-chloro-2-fluoro-6-(1h-tetrazol-1-yl)phenyl)-2-(2^5-fluoro-5-methyl-4-oxo-3-aza-1(1,3),2(1,2)-dibenzenacyclononaphane-9-yl)pyridine 1-oxide], for which the Ki in test [1] was 0.41 nM; in test [2], 1.94 nM.
Take `CC1CCCC(c2ccc(-c3cc(Cl)ccc3-n3cnnn3)c[n+]2[O-])c2cccc(c2)-c2ccc(C#N)cc2NC1=O` (centres unmarked) [Example 84, 5-(5-chloro-2-(1H-tetrazol-1-yl)phenyl)-2-(2^4-cyano-5-Methyl-4-OXO-3-aza-1(1,3), 2(1,2)-dinenzenacyclononaphane-9-yl)pyridine 1-oxide]: the results for the Ki in test [1] and in test [2] were 0.38 nM and 1.85 nM, respectively.
With `CCc1[nH]c2nc1-c1ccc(NC(=O)OC)cc1NC(=O)CCCC[C@@H]2c1ccc(-c2c(F)cccc2-n2cc(C(F)(F)F)cn2)c[n+]1[O-]` (single isomer, unassigned) [Example 138], the Ki in test [1] came to 2.3 nM; in test [2], 665 nM.
